What was measured:
eIF5A = eIF5A maturation in 293T cells, immunoblot with NIH-353 antibody; assay type: cell-based, human; settings: for concentration range reducing appearance of mature eIF5A: 293T transfected with FLAG-eIF5A, 24 hr
Description: Rabbit NIH-353 antibody was raised against mature human eIF5A (Cracchiolo et al. Gynecol Oncol 2004, 94:217-222). Antibody against DOHH was generated by M. H. Park. Anti-eIF5A-1 monoclonal antibody (BD) was purchased from BD Biosciences. The anti-FLAG monoclonal antibody M2 and anti-actin antibody were purchased from Sigma.
Immunoprecipitation and immunoblotting experiments were carried out as described previously in Hoque et al. Mol Cell Biol 2003, 23:1688-1702.
To examine the effect of the drugs on the synthesis of modified eIF5A, 293T cells transfected with a FLAG-tagged eIF5A expression vector were simultaneously treated with CPX or DEF. FLAG-eIF5A was monitored using NIH-353 and anti-FLAG antibodies (FIG. 2A,B). The NIH-353 antibody reacts preferentially with post-translationally modified eIF5A. CPX reduced the appearance of mature eIF5A over the 3-30 μM concentration range, while DEF was effective at 200-400 μM. […] In addition to the CPX homolog Agent P2, deferoxamine (DFOX; Desferal™) was used as a control compound.

[1] = target: T1, deoxyhypusine hydroxylase (Homo sapiens, UniProt Q9BU89); assay: Deoxyhypusine hydroxylase activity in H9-HIV cells (peptide-bound hypusine / deoxyhypusine); assay type: cell-based
T1 construct: endogenous in cells; host or cells: H9-HIV cells (H9 infected with HIV-1 HTLV-IIIB)
T1 sequence (Q9BU89 1-302): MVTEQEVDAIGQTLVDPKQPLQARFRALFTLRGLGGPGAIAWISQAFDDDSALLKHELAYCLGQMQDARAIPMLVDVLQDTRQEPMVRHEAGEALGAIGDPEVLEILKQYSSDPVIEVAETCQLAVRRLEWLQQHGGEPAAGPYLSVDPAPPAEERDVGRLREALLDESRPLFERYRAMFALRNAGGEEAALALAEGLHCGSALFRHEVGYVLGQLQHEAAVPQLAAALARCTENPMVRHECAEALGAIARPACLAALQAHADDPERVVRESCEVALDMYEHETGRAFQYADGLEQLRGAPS
Excerpt: FIGS. 11A-D are a set of diagrams showing drug-activated apoptosis and iron chelation. A. Covalent structures of the medicinal chelators DFOX and DEF, and of the antifungal agent CPX and its chelation homolog Agent P2. DFOX, CPX, and Agent P2 interact with iron via a hydroxamate moiety, similar to the chelating domain of DEF. Arrows indicate the uniform bidentate mode of metal binding. DFOX contains three of these moieties and is a hexadentate chelator. B. Effect of drugs and Agent P2 on the expression of iron-dependant (IRE; hatched bars) and retrovirally-encoded (HIV; filled bars) gene expression in transfected 293T cells. Results are expressed relative to untreated controls. C. […] Triangles, peptide-bound hypusine; squares, peptide-bound deoxyhypusine. D. Induction of apoptosis by CPX and by DFOX. H9-HIV cells were treated for 24 hr and then assayed by flow cytometry using TUNEL. Results are expressed as percentage of cells that are TUNEL-positive (±SEM).

H9-HIV cells [2] = assay: Intracellular cellular and retroviral proteins by flow cytometry in H9-HIV cells; assay type: cell-based
Description: Intracellular antigens were determined, as geometric means of fluorescence, by flow cytometric analysis using a BD FACSCalibur™ and its BD FACStation System™ (Becton Dickinson; San Jose, Calif.). Intracellular antigens were stained according to the instrument producer's instructions.
CD4+ T cells isolated from infected individuals have increased Bcl-2 levels compared to uninfected lymphocytes and some reports implicate HIV-1 Tat in preventing apoptosis in persistently infected cells by inducing the transcription of Bcl-2. Since CPX blocks HIV-1 gene expression, Bcl-2 expression in H9 and H9-HIV cells was determined. […] Retroviral proteins can also control apoptosis. Therefore, assays were carried out to measure the response of individual retroviral proteins in H9-HIV (FIG. 10C) to the shut-down of the HIV-1 promoter by CPX. […] Vpr induces apoptosis via caspase-3 activation.

H9-HIV cells [3] = assay: Apoptosis in H9-HIV cells: annexin V binding, cell diameter, cell survival; assay type: cell-based; settings: CPX 30 μM, DEF 200 μM; for increase in annexin-V binding, 7-AAD-negative cell population: by 24 hr
Description: Uninfected and uniformly HIV-1 (HTLV-IIIB) infected H9 cells, obtained from the NIH AIDS Research and References Reagent Program, were cultured at 37° C. in a humidified atmosphere (5% CO2, 95% humidity) using RPMI 1640 medium supplemented with 2 mM L-glutamine, […], […] and 20% fetal calf serum.
Viability, diameter, and cell number of PBMCs and H9 cells were measured by computerized image analysis of trypan blue exclusion (VI-CELL™; Beckman Coulter; Fullerton, Calif.). PBMCs were counted with an automated, multi-parameter hematology analyzer (CELL-DYN™; Abbott Laboratories, Abbott Park, Ill.).
The potential across the mitochondrial membrane of live cells was determined flow-cytometrically with the lipophilic cationic fluorochrome JC-1 (5,5′,6,6′-tetrachloro-1,1′,3,3′-tetraethylbenzimidazolcarbocyanine iodide) immediately after sample harvest (BD™ Mitoscreen Kit, BD Biosciences; San Diego, Calif.). DNA fragmentation was quantified flow-cytometrically, using a TUNEL (terminal deoxynucleotide transferase dUTP nick end-labeling) assay (APO-BRDU™; Phoenix Flow Systems; San Diego, Calif.) and a dual-color assay for annexin V binding and 7-AAD exclusion (Annexin V-PE 7-AAD Apoptosis Detection Kit I™; BD Biosciences Pharmingen, San Jose, Calif.). The apoptotic volume decrease of cells was assessed by the reduction of their diameter (VI-CELL™; Beckman Coulter; Fullerton, Calif.).
First, whether both drugs elicit apoptosis in H9-HIV cells was determined. The cells were exposed to CPX or DEF, and annexin-V binding, cell diameter and cell survival were assayed in a time-dependent manner. By 24 hr, drug treatment elicited a ˜5-fold increase in the percentage of the 7-AAD-negative cell population capable of binding annexin-V to exposed membrane phospholipid phosphatidylserine, with little further increase at 48 hr (FIG. 8A). Both drugs elicited a decrease in mean cell diameter of ˜15% within 24 hr and ˜30% within 48 hr, indicating volume constriction characteristic of apoptosis but not necrosis (FIG. 8B). Concomitantly, cell survival decreased ˜2 fold at 24 hr and ˜5 fold at 48 hr (FIG. 8C).

Q: How did the “effect on appearance of mature FLAG-eIF5A” value (eIF5A; 293T, control compounds) turn out when Cc1ccn(O)c(=O)c1 [Agent P2, 1-hydroxy-4-methylpyridin-2[1H]-one] was run?
A: The value was “little or no effect”.

Q: And the “inhibition of deoxyhypusine hydroxylase activity / eIF5A hydroxylation” value [1]?
A: Its value is “failed to inhibit eIF5A hydroxylation in vivo or in vitro”.

Q: Which “concentration range reducing appearance of mature eIF5A” value (eIF5A) does the source give for Cc1cc(C2CCCCC2)n(O)c(=O)c1 [CPX, 6-cyclohexyl-1-hydroxy-4-methylpyridin-2[1H]-one] here?
A: The value was 3 to 30 µM.

Q: And the “active caspase-3” value (H9-HIV cells [2]; 30 μM CPX, 24 and 48 hr)?
A: The value was “the increase in Vpr paralleled that of active caspase-3”.

Q: And the “intracellular Rev” value (H9-HIV cells [2]; 30 μM CPX, 24 and 48 hr)?
A: The value was “only marginally affected”.

Q: And the “intracellular Tat” value (H9-HIV cells [2]; 30 μM CPX, 24 and 48 hr)?
A: Its value is “similarly reduced”.

Q: And the “increase of Vpr level” value (H9-HIV cells [2]; 30 μM CPX, within 24 hr)?
A: Its value is about 15%.

Q: What about the “reduction of intracellular p24” value (H9-HIV cells [2]; 30 μM CPX, within 24 hr) of the same compound?
A: Its value is 30%.

Q: What about the “increase of Vpr level” value (H9-HIV cells [2]; 30 μM CPX, within 48 hr) of the same compound?
A: The value was about 70%.

Q: What about the “reduction of intracellular p24” value (H9-HIV cells [2]; 30 μM CPX, within 48 hr) of the same compound?
A: Its value is 70%.

Q: And the “dose-dependent change in Bcl-2 content” value (H9-HIV cells [2]; 24 hr, H9 and H9-HIV)?
A: The value was “neither of these measures achieved statistical significance”.

Q: And the “cells positive for Bcl-2” value (H9-HIV cells [2]; CPX 24 hr, irrespective of infection (H9 and H9-HIV))?
A: The value was about 35%.

Q: And the “inhibition of deoxyhypusine hydroxylase activity / eIF5A hydroxylation” value [1]?
A: Its value is “Dose-dependent inhibition of deoxyhypusine hydroxylase activity”.

Q: And the “decrease in cell survival” value (H9-HIV cells [3]; at 24 hr)?
A: Its value is about 2 fold.

Q: And the “decrease in cell survival” value (H9-HIV cells [3]; at 48 hr)?
A: The value was about 5 fold.

Q: And the “increase in annexin-V binding, 7-AAD-negative cell population” value (H9-HIV cells [3])?
A: Its value is about 5 fold.

Q: What about the “decrease in mean cell diameter” value (H9-HIV cells [3]; within 24 hr) of the same compound?
A: Its value is about 15%.

Q: What about the “decrease in mean cell diameter” value (H9-HIV cells [3]; within 48 hr) of the same compound?
A: Its value is about 30%.

Q: Which results are given for Cc1c(O)c(=O)ccn1C [DEF, 3-hydroxy-1,2-dimethylpyridin-4(1H)-one]?
A: concentration range reducing appearance of mature eIF5A (eIF5A): 200 to 400 µM; response of retroviral proteins Rev, p24, Tat, Vpr (H9-HIV cells [2]; DEF): sparing Rev, decreasing p24 and Tat, and increasing Vpr; decrease in cell survival (H9-HIV cells [3]; at 24 hr): ~2 fold; decrease in cell survival (H9-HIV cells [3]; at 48 hr): ~5 fold; increase in annexin-V binding, 7-AAD-negative cell population (H9-HIV cells [3]): ~5 fold; decrease in mean cell diameter (H9-HIV cells [3]; within 24 hr): ~15%; decrease in mean cell diameter (H9-HIV cells [3]; within 48 hr): ~30%
